Test results from ChEMBL document CHEMBL3400145, “Design and synthesis of piperazine derivatives as a novel class of γ-secretase modulators that selectively lower Aβ₄₂ production” (Bioorg Med Chem, 2015).
Activity calls are given as the source filed them. The rule behind the calls is not given here.

How the values were obtained:
neuronal [1] = assay: Inhibition of amyloid beta40 production in rat neuronal cells assessed as maximal inhibition at 3 uM after 3 days by ELISA; format: cell-based
neuronal [2] = assay: Inhibition of amyloid beta40 production in rat neuronal cells assessed as inflection point after 3 days by ELISA; format: cell-based
[3] = Metabolic stability in rat hepatic microsomes by LC/MS/MS analysis; format: ADME, Liver, Microsome; details: read-out: CLH
[4] = Volume of distribution at steady state in C57BL/6J mouse at 0.1 mg/kg, iv cassette dosing; format: ADME, organism-based; parameters: dose 0.1 mg/kg, route intravenous; details: in vivo, read-out: Vdss
[5] = Mean residence time in C57BL/6J mouse at 1 mg/kg, po cassette dosing; format: ADME, organism-based; parameters: dose 1 mg/kg, route oral; details: in vivo
Brain [6] = assay: Reduction in soluble amyloid beta42 in C57BL/6J mouse brain at 100 mg/kg, po after 3 hrs by ELISA relative to vehicle treated control; format: functional
[7] = biological target: Amyloid-beta precursor protein (Homo sapiens) (UniProt P05067); assay: Inhibition of amyloid beta40 production in human IMR32 cell by ELISA; format: functional, cell-based; details: IMR-32
Sequence of Amyloid-beta precursor protein (Homo sapiens) (P05067 whole entry): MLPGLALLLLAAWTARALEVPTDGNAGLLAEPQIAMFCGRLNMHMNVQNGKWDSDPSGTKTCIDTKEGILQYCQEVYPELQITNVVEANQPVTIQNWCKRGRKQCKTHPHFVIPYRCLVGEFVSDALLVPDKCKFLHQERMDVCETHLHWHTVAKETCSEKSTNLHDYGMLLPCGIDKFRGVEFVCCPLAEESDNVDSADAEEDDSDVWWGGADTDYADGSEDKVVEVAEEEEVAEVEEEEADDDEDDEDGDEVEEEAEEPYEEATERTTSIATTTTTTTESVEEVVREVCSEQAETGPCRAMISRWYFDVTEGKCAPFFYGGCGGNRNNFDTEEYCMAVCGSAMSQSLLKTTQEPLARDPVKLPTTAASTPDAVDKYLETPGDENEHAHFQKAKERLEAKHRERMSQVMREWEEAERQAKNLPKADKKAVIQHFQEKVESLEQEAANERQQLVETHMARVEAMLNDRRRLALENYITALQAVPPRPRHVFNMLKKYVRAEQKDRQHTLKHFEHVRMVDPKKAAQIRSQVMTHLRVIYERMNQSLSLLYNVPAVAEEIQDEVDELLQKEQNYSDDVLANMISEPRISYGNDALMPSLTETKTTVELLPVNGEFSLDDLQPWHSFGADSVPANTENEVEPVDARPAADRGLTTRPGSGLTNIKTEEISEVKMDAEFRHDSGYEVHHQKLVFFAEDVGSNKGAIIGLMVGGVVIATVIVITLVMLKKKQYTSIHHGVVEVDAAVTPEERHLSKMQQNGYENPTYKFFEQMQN

[8] = biological target: Amyloid-beta precursor protein (Homo sapiens) (UniProt P05067); assay: Inhibition of amyloid beta42 production in human IMR32 cell by ELISA; format: functional, cell-based; details: IMR-32
Mus musculus [9] = assay: Oral bioavailability in C57BL/6J mouse at 1 mg/kg cassette dosing; format: ADME, organism-based; details: in vivo
Plasma [10] = assay: Reduction in soluble amyloid beta42 in C57BL/6J mouse plasma at 100 mg/kg, po after 3 hrs by ELISA relative to vehicle treated control; format: functional
Plasma [11] = assay: Reduction in soluble amyloid beta40 in C57BL/6J mouse plasma at 100 mg/kg, po after 3 hrs by ELISA relative to vehicle treated control; format: functional
[12] = Cmax in C57BL/6J mouse at 1 mg/kg, po cassette dosing; format: ADME, organism-based; parameters: dose 1 mg/kg, route oral; details: in vivo
IMR-32 = assay: Inhibition of total amyloid beta production in human IMR32 cell by ELISA; format: functional, cell-based
Mus musculus [13] = assay: AUC in C57BL/6J mouse at 1 mg/kg, po cassette dosing; format: ADME, organism-based, Plasma; parameters: dose 1 mg/kg, route oral; details: in vivo
Brain [14] = assay: Reduction in soluble amyloid beta40 in C57BL/6J mouse brain at 100 mg/kg, po after 3 hrs by ELISA relative to vehicle treated control; format: functional

SMILES | microsomal CLint [3] | inhibition (neuronal [1]) | Activity (neuronal [2]) | also measured
COc1cc(N2CCN(C(=O)N[C@@H](C)c3cccc4ccccc34)C[C@@H]2C)ccc1-c1cnc(C)o1 | 150 µL/min/mg | 64% | 21 nM | –
COc1cc(N2CCN(C(=O)N[C@@H](C)c3cccc4ccccc34)CC2)ccc1-n1cnc(C)n1 | 110 µL/min/mg | 68% | 170 nM | –
COc1cc(N2CCN(C(=O)Cn3cnc4cc(C(F)(F)F)ccc43)C[C@@H]2C)ccc1-c1cnc(C)o1 | 67 µL/min/mg | 60% | 21 nM | Vd [4]: 0.36 L/kg; MRT [5]: 3.26 h; inhibition in vivo at 100 mg/kg (Brain [6]): 41%; inhibition [7]: inactive; inhibition [8]: Dose-dependent effect; F (Mus musculus [9]): 46%; inhibition in vivo at 100 mg/kg (Plasma [10]): 36%; % of control at 100 mg/kg (Plasma [11]): 106%; Cmax [12]: 773 ng/mL; inhibition (IMR-32): inactive; AUC (Mus musculus [13]): 3930 ng·h/mL; % of control at 100 mg/kg (Brain [14]): 105%
COc1cc(N2CCN(C(=O)N[C@@H](C)c3cccc4ccccc34)CC2)ccc1-n1cnc(C)c1 | 150 µL/min/mg | 57% | 56 nM | inhibition in vivo at 100 mg/kg (Brain [6]): 4%; inhibition in vivo at 100 mg/kg (Plasma [10]): 16%
COc1cc(N2CCN(C(=O)N[C@@H](C)c3cccc4ccccc34)CC2)ccc1-n1cc(C)nn1 | 230 µL/min/mg | 47% | 450 nM | –
COc1cc(N2CCN(C(=O)Cn3cnc4ccc(C(F)(F)F)cc43)C[C@@H]2C)ccc1-c1cnc(C)o1 | 50 µL/min/mg | 46% | 30 nM | –
COc1cc(N2CCN(C(=O)N[C@@H](C)c3cccc4ccccc34)C[C@H]2C)ccc1-c1cnc(C)o1 | 150 µL/min/mg | 65% | 56 nM | –
COc1cc(C2CCN(C(=O)N[C@@H](C)c3cccc4ccccc34)CC2)ccc1-c1cnc(C)o1 | 170 µL/min/mg | 61% | 260 nM | –
COc1cc(N2CCN(C(=O)N[C@@H](C)c3cccc4ccccc34)CC2)ccc1-c1cnn(C)c1 | 150 µL/min/mg | 63% | 180 nM | –

Continued, in another order:

microsomal CLint [3] | SMILES | inhibition (neuronal [1]) | Activity (neuronal [2]) | also measured
160 µL/min/mg | COc1cc(N2CCN(C(=O)CN3CCc4ccccc43)CC2)ccc1-c1cnc(C)o1 | 52% | 290 nM | –
12 µL/min/mg | COc1cc(N2CCN(C(=O)Cn3cnc4c(C(F)(F)F)cccc43)CC2)ccc1-c1cnc(C)o1 | 53% | 110 nM | –
77 µL/min/mg | COc1cc(N2CCN(C(=O)Cn3ncc4ccccc43)CC2)ccc1-c1cnc(C)o1 | 49% | 170 nM | –
23 µL/min/mg | COc1cc(N2CCN(C(=O)Cn3cnc4ccc(C(F)(F)F)cc43)CC2)ccc1-c1cnc(C)o1 | 50% | 65 nM | –
7 µL/min/mg | COc1cc(N2CCN(C(=O)Cn3cnc4cccc(C(F)(F)F)c43)CC2)ccc1-c1cnc(C)o1 | 46% | 420 nM | –
140 µL/min/mg | COc1cc(N2CCN(C(=O)Cn3ccc4ccccc43)CC2)ccc1-c1cnc(C)o1 | 50% | 180 nM | –
27 µL/min/mg | COc1cc(N2CCN(C(=O)Cn3nnc4ccccc43)CC2)ccc1-c1cnc(C)o1 | 47% | 210 nM | –
22 µL/min/mg | COc1cc(N2CCN(C(=O)Cn3cnc4ccccc43)CC2)ccc1-c1cnc(C)o1 | 71% | 93 nM | –
66 µL/min/mg | COc1cc(N2CCN(C(=O)Cn3cnc4cc(C(F)(F)F)ccc43)CC2)ccc1-c1cnc(C)o1 | 61% | 50 nM | –
130 µL/min/mg | COc1cc(N2CCN(C(=O)N[C@@H](C)c3cccc4ccccc34)CC2)ccc1-c1cnc(C)o1 | 67% | 34 nM | –
240 µL/min/mg | COc1cc(N2CCCN(C(=O)N[C@@H](C)c3cccc4ccccc34)CC2)ccc1-c1cnc(C)o1 | 57% | 38 nM | –
160 µL/min/mg | COc1cc(N2CCN(C(=O)NCc3cccc4ccccc34)CC2)ccc1-c1cnc(C)o1 | 59% | 50 nM | –
42 µL/min/mg | COc1cc(N2CCN(C(=O)CN3Cc4ccccc4C3)CC2)ccc1-c1cnc(C)o1 | 48% | 620 nM | –
